From patent publication US4698350A, “1-ethyl-6-fluoro-1,4-dihydro- 7-(2,6-dimethyl-4-pyridinyl)-4-oxo-3-quinolinecarboxylic acid and antibacterial use thereof” (Sterling Drug Inc., priority 1984, dated 1987)
≈ marks a conversion by molar mass, not a printed value. Like-named read-outs stand apart in the source and are kept apart here.

How the values were obtained:
S. aureus 34-81 = assay: In vitro antibacterial MIC/MBC test; format: cell-based; conditions: Staphylococcus aureus, 3481, S. aureus 34-81
Description: (§1) Win 52,522 and Win 35,439 were solubilized in 0.1 ml of 0.5 N NaOH/mg of compound and diluted in sterile distilled water to 160 mcg/ml. Vancomycin and methicillin were solubilized in sterile distilled water to 1250 mcg/ml of base compound. The stock solutions were sterilized by filtration through membrane filters with a 0.45 μm pore size.
(§2) The bacterial cultures listed in Table I (hereinbelow) were grown overnight at 37° C. in MHB for all cultures except the Streptococcus strains. These were grown in BHI+10% NHS. The overnight broth cultures were adjusted to an optical density of 0.10 (650 nm, B L Spectronic 20) in sterile distilled water and subsequently diluted to 6.7×10^6 cells/ml in MHB or BHI+1% NHS.
(§3) Serial two-fold dilutions of the compound solutions were prepared in MHB (or in BHI+1% NHS for tests with Streptococci) and dispensed into 96-well microtiter trays in a volume of 0.1 ml/well using a Sandy Springs (Bellco Glass Co.) dispenser. The trays were then inoculated with 0.0015 ml of a suspension containing 6.7×10^6 cells/ml of the appropriate inoculum using a MIC-2000 inoculator (Dynatech Corp.) resulting in a final inoculum of approximately 1×10^4 cells/well or 1×10^5 cells/ml. The trays were incubated at 37° C. for 18-20 hours and the minimal inhibitory concentration (MIC), defined as the lowest concentration of compound to inhibit visible bacterial growth, was recorded.
(§4) After the MIC values were recorded, the contents in the microtiter trays were thoroughly mixed on a Bellco Mini-orbital Shaker (Bellco Glass Co.) for 3 min. at a setting of 8. A portion (0.0015 ml) from each well was then transferred via an MIC-2000 inoculator to plates containing MHA or BHI agar+10% NHS. The plates were incubated at 37° C. for 18-20 hrs. The minimal bactericidal concentration (MBC), defined as the lowest concentration of compound that prevented the formation of a recognizable colony on the agar surface, was recorded.

S. aureus 4-81 = assay: In vitro antibacterial MIC/MBC test; format: cell-based; conditions: Staphylococcus aureus, 481, S. aureus 4-81
Description: as §1, §2, §3, §4

S. aureus 41-81 = assay: In vitro antibacterial MIC/MBC test; format: cell-based; conditions: Staphylococcus aureus, 4181, S. aureus 41-81
Description: as §1, §2, §3, §4

S. aureus Glorgio = assay: In vitro antibacterial MIC/MBC test; format: cell-based; conditions: Staphylococcus aureus, S. aureus Glorgio
Description: as §1, §2, §3, §4

S. aureus S-500 = assay: In vitro antibacterial MIC/MBC test; format: cell-based; conditions: Staphylococcus aureus, S500, S. aureus S-500
Description: as §1, §2, §3, §4

S. aureus Smith = assay: In vitro antibacterial MIC/MBC test; format: cell-based; conditions: Staphylococcus aureus, S. aureus Smith
Description: as §1, §2, §3, §4

S. epidermidis (12228) = assay: In vitro antibacterial MIC/MBC test; format: cell-based; conditions: Staphylococcus epidermidis, ATCC12228, S. epidermidis ATCC No. 12228
Description: as §1, §2, §3, §4

S. epidermidis (17917) = assay: In vitro antibacterial MIC/MBC test; format: cell-based; conditions: Staphylococcus epidermidis, ATCC17917, S. epidermidis ATCC No. 17917
Description: as §1, §2, §3, §4

S. epidermidis 1-5-H = assay: In vitro antibacterial MIC/MBC test; format: cell-based; conditions: Staphylococcus epidermidis, 15H, S. epidermidis 1-5-H
Description: as §1, §2, §3, §4

S. epidermidis 2-1-B = assay: In vitro antibacterial MIC/MBC test; format: cell-based; conditions: Staphylococcus epidermidis, 21B, S. epidermidis 2-1-B
Description: as §1, §2, §3, §4

S. faecalis (11700) = assay: In vitro antibacterial MIC/MBC test; format: cell-based; conditions: Enterococcus faecalis, ATCC11700, S. faecalis ATCC No. 11700
Description: as §1, §2, §3, §4

S. pneumoniae Type III = assay: In vitro antibacterial MIC/MBC test; format: cell-based; conditions: Streptococcus pneumoniae, S. pneumoniae Type III
Description: as §1, §2, §3, §4

S. pneumoniae Type I = assay: In vitro antibacterial MIC/MBC test; format: cell-based; conditions: Streptococcus pneumoniae, S. pneumoniae Type I
Description: as §1, §2, §3, §4

S. pyogenes (89) = assay: In vitro antibacterial MIC/MBC test; format: cell-based; conditions: Streptococcus pyogenes, S. pyogenes SWRI No. 89
Description: as §1, §2, §3, §4

S. edidermidis = assay: In vitro MIC/MBC summary (Table II); format: cell-based, S. epidermidis; conditions: Staphylococcus epidermidis, 5 S. edidermidis strains
Description: as §1, §2, §3, §4

[1] = test system: Staphylococcus aureus Smith; assay: Mouse protection test, S. aureus Smith infection, single dose; format: in vivo, ICR mice; Staphylococcus aureus; conditions: single dose; for ED50: Staphylococcus aureus, 168 h, read-out: Protective Dose 50% (95% Confidence Limits)
Description: ICR mice, female, 18-20 grams each.
Solutions of Win 52,522 and Win 35,439 were prepared by dissolving the appropriate weight of drug in 0.3 to 0.4 ml of 1 N NaOH and then bringing the solutions to the desired volume with distilled water. Methicillin and vancomycin were dissolved directly in distilled water.
Two and one-half ml of pool were added to 247.5 ml of 5% gastric mucin to provide the test inoculum containing 2.1×10^4 cells/ml.
Mice were inoculated intraperitoneally with 0.5 ml of the bacterial test inoculum.
1. Single dose test--Mice were medicated subcutaneously or orally once (0.5 ml) one-half hour postinfection.
Deaths were recorded daily for seven days for all tests. Fifty percent protective dose values (PD50's) were calculated using probit analysis [SAS Users Guide: Statistics, 1982 Edition, SAS Institute, Inc., Cary, N.C.].

Work on `CCn1cc(C(=O)O)c(=O)c2ccc(-c3cc(C)nc(C)c3)cc21` [Win 35,439, 1-ethyl-1,4-dihydro-7-(2,6-dimethyl-4-pyridinyl)-4-oxo-3-quinolinecarboxylic acid] yielded an MBC (S. aureus 34-81; read-out: MBC) of 0.06 µg/mL (≈ 0.186 µM), an MIC (S. aureus 34-81; read-out: MIC) of 0.06 µg/mL (≈ 0.186 µM) and an MBC (S. aureus 4-81; read-out: MBC) of 0.125 µg/mL (≈ 0.388 µM). For the same compound, the MIC (S. aureus 4-81; read-out: MIC) was 0.06 µg/mL (≈ 0.186 µM), the MBC (S. aureus 41-81; read-out: MBC) was 0.25 µg/mL (≈ 0.776 µM) and the MIC (S. aureus 41-81; read-out: MIC) was 0.06 µg/mL (≈ 0.186 µM). The MBC (S. aureus Glorgio; read-out: MBC) was 0.125 µg/mL (≈ 0.388 µM), the MIC (S. aureus Glorgio; read-out: MIC) was 0.03 µg/mL (≈ 0.0931 µM) and the MBC (S. aureus S-500; read-out: MBC) was 0.25 µg/mL (≈ 0.776 µM). It also gave an MIC (S. aureus S-500; read-out: MIC) of 0.125 µg/mL (≈ 0.388 µM), an MBC (S. aureus Smith; read-out: MBC) of 0.125 µg/mL (≈ 0.388 µM) and an MIC (S. aureus Smith; read-out: MIC) of 0.125 µg/mL (≈ 0.388 µM). It also gave an MBC (S. epidermidis (12228); read-out: MBC) of 0.25 µg/mL (≈ 0.776 µM), an MIC (S. epidermidis (12228); read-out: MIC) of 0.25 µg/mL (≈ 0.776 µM) and an MBC (S. epidermidis (17917); read-out: MBC) of 0.5 µg/mL (≈ 1.55 µM). The MIC (S. epidermidis (17917); read-out: MIC) was 0.5 µg/mL (≈ 1.55 µM), the MBC (S. epidermidis 1-5-H; read-out: MBC) was 0.25 µg/mL (≈ 0.776 µM) and the MIC (S. epidermidis 1-5-H; read-out: MIC) was 0.25 µg/mL (≈ 0.776 µM). The MBC (S. epidermidis 2-1-B; read-out: MBC) was 0.25 µg/mL (≈ 0.776 µM), the MIC (S. epidermidis 2-1-B; read-out: MIC) was 0.25 µg/mL (≈ 0.776 µM) and the MBC (S. faecalis (11700); read-out: MBC) was 1 µg/mL (≈ 3.1 µM). It also gave an MIC (S. faecalis (11700); read-out: MIC) of 1 µg/mL (≈ 3.1 µM), an MBC (S. pneumoniae Type III; read-out: MBC) of 4 µg/mL (≈ 12.4 µM) and an MIC (S. pneumoniae Type III; read-out: MIC) of 4 µg/mL (≈ 12.4 µM). The MBC (S. pneumoniae Type I; read-out: MBC) was 2 µg/mL (≈ 6.2 µM), the MIC (S. pneumoniae Type I; read-out: MIC) was 2 µg/mL (≈ 6.2 µM) and the MBC (S. pyogenes (89); read-out: MBC) was greater than 16 µg/mL. It also gave an MIC (S. pyogenes (89); read-out: MIC) of 4 µg/mL (≈ 12.4 µM), an MBC (S. edidermidis; read-out: MBC 50%) of 0.25 µg/mL (≈ 0.776 µM) and an MBC (S. edidermidis; read-out: MBC 90%) of 0.25 µg/mL (≈ 0.776 µM). It also gave an MBC (S. edidermidis; read-out: MBC Range) of 0.25 to 0.5 µg/mL (≈ 0.776 to 1.55 µM), an MIC50 (S. edidermidis; read-out: MIC 50%) of 0.25 µg/mL (≈ 0.776 µM) and an MIC90 (S. edidermidis; read-out: MIC 90%) of 0.25 µg/mL (≈ 0.776 µM). For the same compound, the MIC (S. edidermidis; read-out: MIC Range) was 0.25 to 0.5 µg/mL (≈ 0.776 to 1.55 µM), the Survivors/Total ([1]; 0.39 mg/kg po) was 0/10 and the Survivors/Total ([1]; 0.78 mg/kg po) was 1/10. For the same compound, the Survivors/Total ([1]; 0.78 mg/kg sc) was 1/10, the Survivors/Total ([1]; 1.56 mg/kg po) was 0/10 and the Survivors/Total ([1]; 1.56 mg/kg sc) was 0/10. The Survivors/Total ([1]; 3.13 mg/kg po) was 0/10, the Survivors/Total ([1]; 3.13 mg/kg sc) was 6/10 and the Survivors/Total ([1]; 6.25 mg/kg po) was 7/10. For the same compound, the Survivors/Total ([1]; 6.25 mg/kg sc) was 10/10, the ED50 ([1]; po) was roughly 5.5 mg/kg and the ED50 ([1]; sc) was 2.9 mg/kg.
